Assay results published in PubChem BioAssay AID248 (DTP/NCI, 2004).
Several values for one entry are separate records, joined by “and”; a condition that tells them apart may be missing. Identical values can stand only once. Toxic doses and inconclusive results are not listed.

Test system: L1210 leukemia ip in BDF1 mice, survival T/C
Experiment: NCI In Vivo Anticancer Drug Screen. Data for tumor model L1210 Leukemia (intraperitoneal) in B6D2F1 (BDF1) mice
Settings: endpoint: mean survival time, higher = longer survival
Outline: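 Survival endpoint. Drug-treated group vs vehicle group, expressed as T divided by C. Tumor passaged by transplantation.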

[1] = dose: 100.0 mg/kg/injection, schedule: Q01DX009 (ip), vehicle: Klucel (hydroxypropylcellulose) (HPC)
[2] = dose: 200.0 mg/kg/injection, schedule: Q01DX009 (ip), vehicle: Klucel (hydroxypropylcellulose) (HPC)
[3] = dose: 400.0 mg/kg/injection, schedule: Q01DX009 (ip), vehicle: Klucel (hydroxypropylcellulose) (HPC)
[4] = dose: 100.0 mg/kg/injection, schedule: Q04DX003 (ip), vehicle: saline with Tween-80
[5] = dose: 200.0 mg/kg/injection, schedule: Q04DX003 (ip), vehicle: saline with Tween-80
[6] = dose: 400.0 mg/kg/injection, schedule: Q04DX003 (ip), vehicle: saline with Tween-80
[7] = dose: 100.0 mg/kg/injection, schedule: Q01DX001 (ip), vehicle: saline with Tween-80
[8] = dose: 200.0 mg/kg/injection, schedule: Q01DX001 (ip), vehicle: saline with Tween-80

CCc1ccccc1NC(=O)Nc1cccc2ccccc12
T/C (dose: 100.0 mg/kg/injection, schedule: Q01DX009 (ip), vehicle: gum acacia): 98 % of control | T/C (dose: 100.0 mg/kg/injection, schedule: Q04DX003 (ip), vehicle: gum acacia): 96 % of control | T/C (dose: 200.0 mg/kg/injection, schedule: Q01DX009 (ip), vehicle: gum acacia): 95 % of control | T/C (dose: 200.0 mg/kg/injection, schedule: Q04DX003 (ip), vehicle: gum acacia): 96 % of control | T/C (dose: 400.0 mg/kg/injection, schedule: Q01DX009 (ip), vehicle: gum acacia): 88 % of control | T/C (dose: 400.0 mg/kg/injection, schedule: Q04DX003 (ip), vehicle: gum acacia): 93 % of control

CC(C)COC(=O)C1(N)CCCC1
T/C (dose: 30.0 mg/kg/injection, schedule: Q01DX Z (ip), vehicle: saline): 113 % of control | T/C (dose: 45.0 mg/kg/injection, schedule: Q01DX009 (ip), vehicle: saline): 109 % of control | T/C (dose: 45.0 mg/kg/injection, schedule: Q01DX Z (ip), vehicle: saline): 121 % of control | T/C (dose: 66.0 mg/kg/injection, schedule: Q01DX009 (ip), vehicle: saline): 114 % of control | T/C (dose: 150.0 mg/kg/injection, schedule: Q01DX Z (ip), vehicle: saline): 114 % of control and 118 % of control | T/C (dose: 224.0 mg/kg/injection, schedule: Q01DX Z (ip), vehicle: saline): 120 % of control | T/C (dose: 336.0 mg/kg/injection, schedule: Q01DX Z (ip), vehicle: saline): 103 % of control

CCC(=O)n1c(=O)n(C2CCN(CCCS(=O)(=O)c3ccccc3)CC2)c2ccccc21
T/C (dose: 50.0 mg/kg/injection, schedule: Q01DX001 (ip), vehicle: Klucel (hydroxypropylcellulose) (HPC)): 95 % of control | T/C (dose: 100.0 mg/kg/injection, schedule: Q01DX001 (ip), vehicle: Klucel (hydroxypropylcellulose) (HPC)): 95 % of control | T/C (dose: 200.0 mg/kg/injection, schedule: Q01DX001 (ip), vehicle: Klucel (hydroxypropylcellulose) (HPC)): 100 % of control

O=C(c1ccc(C(=O)N2CC2)cc1)N1CC1
T/C (dose: 5.0 mg/kg/injection, schedule: Q04DX003 (ip), vehicle: carboxymethylcellulose (CMC)): 106 % of control | T/C (dose: 10.0 mg/kg/injection, schedule: Q04DX003 (ip), vehicle: carboxymethylcellulose (CMC)): 97 % of control | T/C (dose: 20.0 mg/kg/injection, schedule: Q01DX001 (ip), vehicle: carboxymethylcellulose (CMC)): 103 % of control | T/C (dose: 20.0 mg/kg/injection, schedule: Q04DX003 (ip), vehicle: carboxymethylcellulose (CMC)): 94 % of control

COc1ccc(COC(=O)Oc2ccc(C)cc2)cc1
T/C (dose: 100.0 mg/kg/injection, schedule: Q04DX002 (ip), vehicle: saline): 113 % of control | T/C (dose: 200.0 mg/kg/injection, schedule: Q04DX002 (ip), vehicle: saline): 109 % of control | T/C (dose: 400.0 mg/kg/injection, schedule: Q04DX002 (ip), vehicle: saline): 98 % of control

Cc1ccc(C2NC(=O)c3ccccc3N2)s1 (configuration not stated)
T/C (dose: 50.0 mg/kg/injection, schedule: Q01DX009 (ip), vehicle: Klucel (hydroxypropylcellulose) (HPC)): 107 % of control and 92 % of control | T/C [1]: 98 % of control and 105 % of control | T/C (dose: 150.0 mg/kg/injection, schedule: Q01DX009 (ip), vehicle: Klucel (hydroxypropylcellulose) (HPC)): 102 % of control | T/C [2]: 108 % of control | T/C [3]: 87 % of control

CCCCCCCCCCCCCCCC(=O)OCCCCCCCCCCC
T/C [4]: 100 % of control | T/C [5]: 92 % of control | T/C [6]: 101 % of control

O=NN(CCCl)C(=O)NC1CCC(O)CC1 (configuration not stated)
T/C (dose: 6.25 mg/kg/injection, schedule: Q01DX001 (ip), vehicle: saline with Tween-80): 121 % of control | T/C (dose: 12.5 mg/kg/injection, schedule: Q01DX001 (ip), vehicle: saline with Tween-80): 189 % of control | T/C (dose: 12.5 mg/kg/injection, schedule: Q01DX001 (ip), vehicle: saline): 172 % of control and 239 % of control | T/C (dose: 13.0 mg/kg/injection, schedule: Q01DX001 (ip), vehicle: saline): 384 % of control | T/C (dose: 20.0 mg/kg/injection, schedule: Q01DX001 (ip), vehicle: saline): 494 % of control | T/C (dose: 25.0 mg/kg/injection, schedule: Q01DX001 (ip), vehicle: saline with Tween-80): 211 % of control | T/C (dose: 25.0 mg/kg/injection, schedule: Q01DX001 (ip), vehicle: saline): 198 % of control and 210 % of control and 253 % of control | T/C (dose: 26.0 mg/kg/injection, schedule: Q01DX001 (ip), vehicle: saline): 401 % of control | T/C (dose: 30.0 mg/kg/injection, schedule: Q01DX001 (ip), vehicle: saline): 494 % of control | T/C (dose: 40.0 mg/kg/injection, schedule: Q01DX001 (ip), vehicle: saline): 435 % of control | T/C (dose: 44.0 mg/kg/injection, schedule: Q01DX001 (ip), vehicle: saline): 293 % of control | T/C (dose: 50.0 mg/kg/injection, schedule: Q01DX001 (ip), vehicle: saline with Tween-80): 264 % of control | T/C (dose: 50.0 mg/kg/injection, schedule: Q01DX001 (ip), vehicle: saline): 252 % of control and 113 % of control and 176 % of control | T/C (dose: 60.0 mg/kg/injection, schedule: Q01DX001 (ip), vehicle: saline): 240 % of control | T/C [7]: 92 % of control | T/C (dose: 100.0 mg/kg/injection, schedule: Q01DX001 (ip), vehicle: saline): 105 % of control and 99 % of control and 110 % of control | T/C [8]: 87 % of control | T/C (dose: 200.0 mg/kg/injection, schedule: Q01DX001 (ip), vehicle: saline): 103 % of control and 95 % of control and 106 % of control

NC(Cc1c[nH]c2c(N(CCCl)CCCl)cccc12)C(=O)O (configuration not stated)
T/C (dose: 0.88 mg/kg/injection, schedule: Q01DX Z (ip), vehicle: methylcellulose (MC)): 101 % of control | T/C (dose: 1.3 mg/kg/injection, schedule: Q01DX Z (ip), vehicle: methylcellulose (MC)): 95 % of control | T/C (dose: 2.0 mg/kg/injection, schedule: Q01DX Z (ip), vehicle: methylcellulose (MC)): 95 % of control | T/C (dose: 3.0 mg/kg/injection, schedule: Q01DX Z (ip), vehicle: methylcellulose (MC)): 101 % of control | T/C (dose: 5.0 mg/kg/injection, schedule: Q01DX Z (ip), vehicle: methylcellulose (MC)): 118 % of control | T/C (dose: 40.0 mg/kg/injection, schedule: Q01DX Z (ip), vehicle: methylcellulose (MC)): 118 % of control

CCCCCCCC/C=C\CCCCCCCCOC(=O)Cc1ccc(N(CCCl)CCCl)cc1
T/C (dose: 100.0 mg/kg/injection, schedule: Q01DX005 (ip), vehicle: Klucel (hydroxypropylcellulose) (HPC)): 119 % of control | T/C (dose: 100.0 mg/kg/injection, schedule: Q04DX002 (ip), vehicle: Klucel (hydroxypropylcellulose) (HPC)): 121 % of control | T/C (dose: 200.0 mg/kg/injection, schedule: Q01DX005 (ip), vehicle: Klucel (hydroxypropylcellulose) (HPC)): 115 % of control | T/C (dose: 200.0 mg/kg/injection, schedule: Q04DX002 (ip), vehicle: Klucel (hydroxypropylcellulose) (HPC)): 117 % of control | T/C (dose: 400.0 mg/kg/injection, schedule: Q04DX002 (ip), vehicle: Klucel (hydroxypropylcellulose) (HPC)): 121 % of control

O=C(Nc1cccc(Cl)c1)SCCSC(=O)Nc1cccc(Cl)c1
T/C [7]: 88 % of control | T/C [4]: 98 % of control | T/C [8]: 93 % of control | T/C [5]: 87 % of control | T/C [6]: 88 % of control

N#CCCNC(=O)c1ccccc1
T/C (dose: 100.0 mg/kg/injection, schedule: Q01DX001 (ip), vehicle: acetone): 107 % of control | T/C (dose: 100.0 mg/kg/injection, schedule: Q01DX009 (ip), vehicle: acetone): 90 % of control | T/C (dose: 100.0 mg/kg/injection, schedule: Q04DX003 (ip), vehicle: saline): 103 % of control | T/C (dose: 200.0 mg/kg/injection, schedule: Q01DX001 (ip), vehicle: acetone): 102 % of control | T/C (dose: 200.0 mg/kg/injection, schedule: Q01DX009 (ip), vehicle: acetone): 92 % of control | T/C (dose: 200.0 mg/kg/injection, schedule: Q04DX003 (ip), vehicle: saline): 94 % of control | T/C (dose: 400.0 mg/kg/injection, schedule: Q01DX001 (ip), vehicle: acetone): 102 % of control | T/C (dose: 400.0 mg/kg/injection, schedule: Q01DX009 (ip), vehicle: acetone): 90 % of control | T/C (dose: 400.0 mg/kg/injection, schedule: Q04DX003 (ip), vehicle: saline): 101 % of control

COc1ccc2c(c1)c1c(C)c3cnccc3c(C)c1n2CC1CO1 (configuration not stated)
T/C (dose: 4.7 mg/kg/injection, schedule: Q01DX009 (ip), vehicle: saline with Tween-80): 100 % of control | T/C (dose: 9.4 mg/kg/injection, schedule: Q01DX009 (ip), vehicle: saline with Tween-80): 102 % of control | T/C (dose: 18.75 mg/kg/injection, schedule: Q04DX003 (ip), vehicle: saline with Tween-80): 116 % of control | T/C (dose: 37.5 mg/kg/injection, schedule: Q04DX003 (ip), vehicle: saline): 120 % of control | T/C (dose: 75.0 mg/kg/injection, schedule: Q04DX003 (ip), vehicle: saline): 91 % of control

CC(=O)C(C(c1ccccc1)N1CCCc2ccccc21)N1CCOCC1 (configuration not stated)
T/C [1]: 96 % of control | T/C [2]: 91 % of control | T/C [3]: 98 % of control
